Measured values taken from US20250197387A1, “BCL-XL DEGRADERS AND USES THEREOF” (Kymera Therapeutics, Inc., priority 2021, published 2025).

Tests used:
Type in all cases: cell-based
[1] = target: T1, BCL-XL (Homo sapiens, UniProt Q07817); assay: BCL-XL degradation assay, western blot in MOLT-4 cells, 16 h; settings: western blot, MOLT-4 cells, 16 h; for Dmax: read-out: Bcl-xL WB in MOLT-4 degradation 16 h: Average Dmax %; for DC50: read-out: Bcl-xL WB in MOLT-4 degradation 16 h: Mean external-Abs DC50
T1 construct: endogenous in cells; host or cells: MOLT-4
Method in brief: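 MOLT-4 cells treated with compounds at 0.02-10 μM final for 16 hr at 37° C; lysates analysed by western blot with anti-BCL-xL, beta-actin and GAPDH loading controls, infrared imaging and densitometry; DC50 and Dmax % reported as letter codes.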

[2] = tested on: MOLT-4 cells; assay: CTG (CellTiter-Glo) cell viability assay, MOLT-4; settings: Homo sapiens, MOLT-4, 72 h, 3 day incubation, read-out: CTG Cell Viability Assay - MOLT-4 3 day: Average external-IC50
Procedure: Compound-mediated viability effect on MOLT-4 and Caki-2 was quantitatively determined using the CellTiter-Glo® Luminescent Cell Viability Assay kit from Promega (Catalog number G7570) following manufacturer's recommended procedures. Briefly, MOLT-4 and Caki-2 cells were seeded into 384 well plates (Grenier Bio-One, Catalog number 781080) with a density of 10,000 cells per well. Compounds were then added to the assay plate with final top concentration of 10 μM and 1:3 dilution series with total of 9 doses. The final DMSO concentration is normalized to 0.2%. The assay plates were incubated at 37° C., for 3 days under 5% CO2. Then the assay plate was equilibrated at room temperature for 10 minutes. To determine cell viability, 30 uL CellTiter Glo reagent was added to each well and the assay plate was centrifuged at 1000 rpm for 30 second, incubated at room temperature for 10 min, and analyzed by detecting the luminescence using a multimode plate reader (EnVision 2105, PerkinElmer). The data was then analyzed by software Prism 7.0 from GraphPad and the dose response curves are fit using a three-parameter logistic equation to calculate IC50.
The letter codes for MOLT-4 IC50 include: A (<0.1 μM); B (0.1-1.0 μM); C (>1.0-3.0 μM); and D (>3.0 μM). The letter codes for Caki-2 IC50 include: A (<0.1 μM); B (0.1-1.0 μM); C (>1.0-10.0 μM); and D (>10.0 μM).

[3] = target: T1, BCL-XL; assay: Bcl-xL ELISA degradation in MOLT-4 cells, 6 h; settings: for DC50: read-out: Bcl-xL ELISA in MOLT-4 degradation 6 h: Mean external-Abs DC50
Procedure: The letter codes for BCL-XL DC50 include: A (<0.01 μM); B (0.01-0.1 μM); C (>[…]); D (>0.5-1.0 μM); and E (>1.0 μM). The letter codes for Dmax % include A (>75%); B (50 to 75%); C (<50%).

T1 sequence (Q07817 whole entry): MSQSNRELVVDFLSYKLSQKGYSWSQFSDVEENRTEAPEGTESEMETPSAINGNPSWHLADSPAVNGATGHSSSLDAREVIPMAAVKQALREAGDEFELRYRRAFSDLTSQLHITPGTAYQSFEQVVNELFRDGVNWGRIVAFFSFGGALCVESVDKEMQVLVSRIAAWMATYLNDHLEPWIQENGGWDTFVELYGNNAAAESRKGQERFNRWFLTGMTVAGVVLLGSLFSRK

| Compound | Dmax [1] [%] | DC50 [1] [nM] | IC50 [2] [nM] | Dmax [3] [%] | DC50 [3] [nM] |
| --- | --- | --- | --- | --- | --- |
| Cc1ncsc1-c1ccc([C@H](C)NC(=O)[C@@H]2C[C@@H](O)CN2C(=O)[C@@H](NC(=O)CCCCCCCS(=O)(=O)NC(=O)c2nc(N3CCc4cccc(C(=O)Nc5nc6ncccc6s5)c4C3)ccc2-c2cnn(CC34CC5CC(CC(C5)C3)C4)c2C)C(C)(C)C)cc1 [I-140] | > 75 | < 10 | 100 to 1000 |  |  |
| Cc1cc([C@@H](C(=O)N2C[C@H](O)C[C@H]2C(=O)NCc2ccc(-c3scnc3C)cc2OCC(=O)N2CCN(CC[C@H](CSc3ccccc3)Nc3ccc(S(=O)(=O)NC(=O)c4ccc(N5CCN(CC6=C(c7ccc(Cl)cc7)CCC(C)(C)C6)CC5)cc4)cc3S(=O)(=O)C(F)(F)F)CC2)C(C)C)on1 [I-135] | > 75 | 10 to 100 | 100 to 1000 |  |  |
| Cc1cc(N(C)c2ccc(-c3cnn(CC4CCCCC4)c3C)c(C(=O)NCCCCCCOc3cc(-c4scnc4C)ccc3CNC(=O)[C@@H]3C[C@@H](O)CN3C(=O)[C@@H](NC(=O)C3(F)CC3)C(C)(C)C)n2)nnc1Nc1nc2ccccc2s1 [I-203] | < 50 | > 1000 | 100 to 1000 |  |  |
| Cc1ncsc1-c1ccc(CNC(=O)[C@@H]2C[C@@H](O)CN2C(=O)[C@@H](NC(=O)C2(F)CC2)C(C)(C)C)c(OCCCC(=O)NCCOc2ccc(C(=O)Nc3nc4ccccc4s3)c3c2CCN(c2ccc(-c4cnn(CC5CCCCC5)c4C)c(C(=O)O)n2)C3)c1 [I-46] | 50 to 75 | 100 to 500 | 1000 to 3000 |  |  |
| Cc1cc(N(C)c2ccc(-c3cnn(CC4CCCCC4)c3C)c(C(=O)NS(=O)(=O)CCCCCOc3cc(-c4scnc4C)ccc3CNC(=O)[C@@H]3C[C@@H](O)CN3C(=O)[C@@H](NC(=O)C3(F)CC3)C(C)(C)C)n2)nnc1Nc1nc2ccccc2s1 [I-188] | 50 to 75 | > 1000 | > 3000 |  |  |
| Cc1ncsc1-c1ccc([C@H](C)NC(=O)[C@@H]2C[C@@H](O)CN2C(=O)[C@@H](NC(=O)CCCCCC(=O)N2CCN(CC[C@H](CSc3ccccc3)Nc3ccc(S(=O)(=O)NC(=O)c4csc(N5CCc6cccc(C(=O)Nc7nc8ccccc8s7)c6C5)n4)cc3S(=O)(=O)C(F)(F)F)CC2)C(C)(C)C)cc1 [I-108] | > 75 | 10 to 100 | 1000 to 3000 |  |  |
| Cc1cc([C@H](C(=O)N2C[C@H](O)C[C@H]2C(=O)NCc2ccc(-c3scnc3C)cc2OCC(=O)N2CCN(CC[C@H](CSc3ccccc3)Nc3ccc(S(=O)(=O)NC(=O)c4ccc(N5CCN(CC6=C(c7ccc(Cl)cc7)CCC(C)(C)C6)CC5)cc4)cc3S(=O)(=O)C(F)(F)F)CC2)C(C)C)on1 [I-134] | < 50 | > 1000 | > 3000 |  |  |
| Cc1ncsc1-c1ccc([C@H](C)NC(=O)[C@@H]2C[C@@H](O)CN2C(=O)[C@@H](NC(=O)CCCCCCCC(=O)NCCOc2ccc(C(=O)Nc3nc4ccccc4s3)c3c2CCN(c2ccc(-c4cnn(CC5CCCCC5)c4C)c(C(=O)O)n2)C3)C(C)(C)C)cc1 [I-45] | > 75 | 10 to 100 | 1000 to 3000 |  |  |
| Cc1ncsc1-c1ccc([C@H](C)NC(=O)[C@@H]2C[C@@H](O)CN2C(=O)[C@@H](NC(=O)N2CC3(CN(CCCS(=O)(=O)NC(=O)c4nc(N5CCc6cccc(C(=O)Nc7nc8ccccc8s7)c6C5)ccc4-c4cnn(CC5CCCCC5)c4C)C3)C2)C(C)(C)C)cc1 [I-151] | < 50 | 100 to 500 | 1000 to 3000 |  |  |
| Cc1ncsc1-c1ccc([C@H](C)NC(=O)[C@@H]2C[C@@H](O)CN2C(=O)[C@@H](NC(=O)N2CCC(CN3CCC(CNC(=O)c4nc(N5CCc6cccc(C(=O)Nc7nc8ccccc8s7)c6C5)ccc4-c4cnn(CC5CCCCC5)c4C)CC3)CC2)C(C)(C)C)cc1 [I-144] | 50 to 75 | 500 to 1000 | 100 to 1000 |  |  |
| Cc1ncsc1-c1ccc(CNC(=O)[C@@H]2CC(O)CN2C(=O)[C@@H](NC(=O)C2(F)CC2)C(C)(C)C)c(OCCCCCCCCS(=O)(=O)NC(=O)c2nc(N3CCc4cccc(C(=O)Nc5nc6ccccc6s5)c4C3)ccc2-c2cnn(CC34CC5CC(CC(C5)C3)C4)c2C)c1 (some centres unmarked) [I-122] | > 75 | < 10 | < 100 |  |  |
| Cc1ncsc1-c1ccc(CNC(=O)[C@@H]2C[C@@H](O)CN2C(=O)[C@@H](NC(=O)C2(C#N)CC2)C(C)(C)C)c(OCC(=O)N2CCN(CC[C@H](CSc3ccccc3)Nc3ccc(S(=O)(=O)NC(=O)c4ccc(N5CCN(CC6=C(c7ccc(Cl)cc7)CCC(C)(C)C6)CC5)cc4)cc3S(=O)(=O)C(F)(F)F)CC2)c1 [I-133] | > 75 | 10 to 100 | 1000 to 3000 |  |  |
| Cc1ncsc1-c1ccc([C@H](C)NC(=O)[C@@H]2C[C@@H](O)CN2C(=O)[C@@H](NC(=O)CCCCCCCCNC(=O)c2nc(N3CCc4cccc(C(=O)Nc5nc6ccccc6s5)c4C3)ccc2-c2cnn(CC3CCOCC3)c2C)C(C)(C)C)cc1 [I-142] | > 75 | 100 to 500 | > 3000 |  |  |
| Cc1ncsc1-c1ccc([C@H](C)NC(=O)[C@@H]2C[C@@H](O)CN2C(=O)C(c2cc(OCC3CCN(CCNC(=O)c4nc(N5CCc6cccc(C(=O)Nc7nc8ccccc8s7)c6C5)ccc4-c4cnn(CC5CCCCC5)c4C)CC3)no2)C(C)C)cc1 (some centres unmarked) [I-175] | < 50 | > 1000 | 100 to 1000 |  |  |
| Cc1ncsc1-c1ccc([C@H](C)NC(=O)[C@@H]2C[C@@H](O)CN2C(=O)[C@H](NC(=O)CCCCCCCS(=O)(=O)NC(=O)c2nc(N3CCc4cccc(C(=O)Nc5nc6ccccc6s5)c4C3)ccc2-c2cnn(C)c2C)C(C)(C)C)cc1 [I-145] | > 75 | 100 to 500 | > 3000 |  |  |
| Cc1ncsc1-c1ccc([C@H](C)NC(=O)[C@@H]2C[C@@H](O)CN2C(=O)[C@H](c2cc(N3CCN(c4ccc(S(=O)(=O)NC(=O)c5nc(N6CCc7cccc(C(=O)Nc8nc9ccccc9s8)c7C6)ccc5-c5cnn(CC6CCCCC6)c5C)cc4)CC3)no2)C(C)C)cc1 [I-213] | 50 to 75 | 100 to 500 | 1000 to 3000 |  |  |
| Cc1ncsc1-c1ccc(CNC(=O)[C@@H]2C[C@@H](O)CN2C(=O)[C@@H](c2cc(N3CC4(CN(CCCC(=O)N(C)CC#Cc5ccc(OCCCc6ccc(N7CCc8cccc(C(=O)Nc9nc%10ccccc%10s9)c8C7)nc6C(=O)O)c(F)c5)C4)C3)no2)C(C)C)cc1 [I-180] | < 50 | > 1000 | > 3000 |  |  |
| Cc1ncsc1-c1ccc([C@H](C)NC(=O)[C@@H]2C[C@@H](O)CN2C(=O)[C@@H](NC(=O)C2CCN(c3ccc(S(=O)(=O)NC(=O)c4nc(N5CCc6cccc(C(=O)Nc7nc8ccccc8s7)c6C5)ccc4-c4cccc(OC(C)C)c4C)cc3)CC2)C(C)(C)C)cc1 [I-305] |  |  | 1000 to 3000 | < 50 | > 1000 |
| Cc1ncsc1-c1ccc([C@H](C)NC(=O)[C@@H]2C[C@@H](O)CN2C(=O)[C@@H](c2cc(OCC3CCN(CCNC(=O)c4nc(N5CCc6cccc(C(=O)Nc7nc8ccccc8s7)c6C5)ccc4-c4cnn(CC5CCCCC5)c4C)CC3)no2)C(C)C)cc1 [I-289] |  |  | 100 to 1000 | 50 to 75 | 10 to 100 |
| Cc1ncsc1-c1ccc(CNC(=O)[C@@H]2C[C@@H](O)CN2C(=O)[C@@H](NC(=O)C2(F)CC2)C(C)(C)C)c(OCCCCCCNCc2nc(N3CCc4cccc(C(=O)Nc5nc6ccccc6s5)c4C3)ccc2-c2cnn(CC3CCCCC3)c2C)c1 [I-222] |  |  | 1000 to 3000 | < 50 |  |
| Cc1ncsc1-c1ccc(CNC(=O)[C@@H]2C[C@@H](O)CN2C(=O)[C@@H](NC(=O)C2(F)CC2)C(C)(C)C)c(CCCN2CCN(CC[C@H](CSc3ccccc3)Nc3ccc(S(=O)(=O)NC(=O)c4ccc(N5CCN(CC6=C(c7ccc(Cl)cc7)CCC(C)(C)C6)CC5)cc4)cc3S(=O)(=O)C(F)(F)F)CC2)c1 [I-211] |  |  | 100 to 1000 | < 50 | > 1000 |
| Cc1ncsc1-c1ccc(CNC(=O)[C@@H]2C[C@H](O)CN2C(=O)[C@@H](NC(=O)C2(F)CC2)C(C)(C)C)c(OCCCCCS(=O)(=O)NC(=O)c2nc(N3CCc4cccc(C(=O)Nc5nc6ccccc6s5)c4C3)ccc2-c2cnn(CC34CC5CC(CC(C5)C3)C4)c2C)c1 [I-290] |  |  | 100 to 1000 | 50 to 75 | 100 to 500 |
| Cc1ncsc1-c1ccc(CNC(=O)[C@@H]2C[C@@H](O)CN2C(=O)[C@@H](NC(=O)C2(F)CC2)C(C)(C)C)c(OCCc2ccc(S(=O)(=O)NC(=O)c3nc(N4CCc5cccc(C(=O)Nc6nc7ccccc7s6)c5C4)ccc3-c3cnn(CC4CCCCC4)c3C)cc2)c1 [I-219] |  |  | 100 to 1000 | > 75 | 10 to 100 |
